Reference: PMC11233931, “Remodeling tumor‐associated macrophage for anti‐cancer effects by rational design of irreversible inhibition of mitogen‐activated protein kinase‐activated protein kinase 2” (MedComm, 2024)

Legend:
Assay in all cases: Eurofins kinase selectivity profile against 380 other human recombinant kinases (Table S2)
Assay type in all cases: biochemical
[1] = molecular target: T1, 380 human recombinant protein kinases (Homo sapiens, UniProt Q8N5S9); settings: CaMKK1(h), read-out: Inhibition rate
T1 construct: purchased Eurofins (Celle Lévescault)
T1 sequence (Q8N5S9 whole entry): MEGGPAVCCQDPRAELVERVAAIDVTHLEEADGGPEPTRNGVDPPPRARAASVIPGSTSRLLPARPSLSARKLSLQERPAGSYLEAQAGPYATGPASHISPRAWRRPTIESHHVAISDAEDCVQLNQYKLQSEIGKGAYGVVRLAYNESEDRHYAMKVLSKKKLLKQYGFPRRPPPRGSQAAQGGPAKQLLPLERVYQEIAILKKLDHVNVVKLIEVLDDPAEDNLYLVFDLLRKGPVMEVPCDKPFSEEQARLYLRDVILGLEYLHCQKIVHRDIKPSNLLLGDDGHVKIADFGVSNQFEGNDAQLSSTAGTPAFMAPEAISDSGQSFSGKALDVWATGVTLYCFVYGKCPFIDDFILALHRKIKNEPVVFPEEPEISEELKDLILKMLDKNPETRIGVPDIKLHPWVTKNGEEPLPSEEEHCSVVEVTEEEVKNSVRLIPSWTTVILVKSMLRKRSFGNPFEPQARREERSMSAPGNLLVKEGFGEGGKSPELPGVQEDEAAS
Method in brief: (§1)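 The inhibitor was sent to a contract lab and screened at various concentrations against 380 human recombinant protein kinases. This served as a counter-screen for MK2 specificity.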

[2] = molecular target: T2, 380 human recombinant protein kinases (Homo sapiens, UniProt Q9UQ07); settings: MOK(h), read-out: Inhibition rate
T2 construct: purchased Eurofins (Celle Lévescault)
T2 sequence (Q9UQ07 1-419): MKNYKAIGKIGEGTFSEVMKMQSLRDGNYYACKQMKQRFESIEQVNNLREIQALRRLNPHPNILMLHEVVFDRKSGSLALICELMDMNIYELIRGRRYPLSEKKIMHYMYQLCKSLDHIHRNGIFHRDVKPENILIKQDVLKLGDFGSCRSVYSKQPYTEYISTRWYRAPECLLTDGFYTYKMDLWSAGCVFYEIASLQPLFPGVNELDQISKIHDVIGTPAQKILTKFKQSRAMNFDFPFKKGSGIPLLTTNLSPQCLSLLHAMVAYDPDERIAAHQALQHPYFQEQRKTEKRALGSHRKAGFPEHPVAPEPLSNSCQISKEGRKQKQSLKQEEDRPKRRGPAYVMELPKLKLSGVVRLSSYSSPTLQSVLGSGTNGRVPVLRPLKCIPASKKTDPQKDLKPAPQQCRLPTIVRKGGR
Method in brief: as §1

[3] = molecular target: T3, 380 human recombinant protein kinases (Homo sapiens, UniProt Q8NE63); settings: HIPK4(h), read-out: Inhibition rate
T3 construct: purchased Eurofins (Celle Lévescault)
T3 sequence (Q8NE63 1-616): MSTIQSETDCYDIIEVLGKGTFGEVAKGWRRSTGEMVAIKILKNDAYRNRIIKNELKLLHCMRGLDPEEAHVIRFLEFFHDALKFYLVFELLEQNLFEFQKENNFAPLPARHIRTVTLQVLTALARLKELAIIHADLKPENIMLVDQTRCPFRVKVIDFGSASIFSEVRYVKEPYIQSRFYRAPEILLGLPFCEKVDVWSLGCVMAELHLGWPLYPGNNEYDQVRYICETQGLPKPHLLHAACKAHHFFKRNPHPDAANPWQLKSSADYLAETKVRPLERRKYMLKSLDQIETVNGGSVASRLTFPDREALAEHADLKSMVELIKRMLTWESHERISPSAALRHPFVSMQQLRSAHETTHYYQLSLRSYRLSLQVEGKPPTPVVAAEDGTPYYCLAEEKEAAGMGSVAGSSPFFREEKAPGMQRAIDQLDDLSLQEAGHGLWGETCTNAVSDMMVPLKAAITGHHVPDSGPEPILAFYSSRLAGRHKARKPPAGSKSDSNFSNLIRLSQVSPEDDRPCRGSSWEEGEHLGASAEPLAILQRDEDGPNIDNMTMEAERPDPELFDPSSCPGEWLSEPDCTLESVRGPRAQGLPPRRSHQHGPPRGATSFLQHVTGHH
Method in brief: as §1

[4] = molecular target: T4, 380 human recombinant protein kinases (Homo sapiens, UniProt Q8WXR4); settings: MYO3B(h), read-out: Inhibition rate
T4 construct: purchased Eurofins (Celle Lévescault)
T4 sequence (Q8WXR4 1-1341): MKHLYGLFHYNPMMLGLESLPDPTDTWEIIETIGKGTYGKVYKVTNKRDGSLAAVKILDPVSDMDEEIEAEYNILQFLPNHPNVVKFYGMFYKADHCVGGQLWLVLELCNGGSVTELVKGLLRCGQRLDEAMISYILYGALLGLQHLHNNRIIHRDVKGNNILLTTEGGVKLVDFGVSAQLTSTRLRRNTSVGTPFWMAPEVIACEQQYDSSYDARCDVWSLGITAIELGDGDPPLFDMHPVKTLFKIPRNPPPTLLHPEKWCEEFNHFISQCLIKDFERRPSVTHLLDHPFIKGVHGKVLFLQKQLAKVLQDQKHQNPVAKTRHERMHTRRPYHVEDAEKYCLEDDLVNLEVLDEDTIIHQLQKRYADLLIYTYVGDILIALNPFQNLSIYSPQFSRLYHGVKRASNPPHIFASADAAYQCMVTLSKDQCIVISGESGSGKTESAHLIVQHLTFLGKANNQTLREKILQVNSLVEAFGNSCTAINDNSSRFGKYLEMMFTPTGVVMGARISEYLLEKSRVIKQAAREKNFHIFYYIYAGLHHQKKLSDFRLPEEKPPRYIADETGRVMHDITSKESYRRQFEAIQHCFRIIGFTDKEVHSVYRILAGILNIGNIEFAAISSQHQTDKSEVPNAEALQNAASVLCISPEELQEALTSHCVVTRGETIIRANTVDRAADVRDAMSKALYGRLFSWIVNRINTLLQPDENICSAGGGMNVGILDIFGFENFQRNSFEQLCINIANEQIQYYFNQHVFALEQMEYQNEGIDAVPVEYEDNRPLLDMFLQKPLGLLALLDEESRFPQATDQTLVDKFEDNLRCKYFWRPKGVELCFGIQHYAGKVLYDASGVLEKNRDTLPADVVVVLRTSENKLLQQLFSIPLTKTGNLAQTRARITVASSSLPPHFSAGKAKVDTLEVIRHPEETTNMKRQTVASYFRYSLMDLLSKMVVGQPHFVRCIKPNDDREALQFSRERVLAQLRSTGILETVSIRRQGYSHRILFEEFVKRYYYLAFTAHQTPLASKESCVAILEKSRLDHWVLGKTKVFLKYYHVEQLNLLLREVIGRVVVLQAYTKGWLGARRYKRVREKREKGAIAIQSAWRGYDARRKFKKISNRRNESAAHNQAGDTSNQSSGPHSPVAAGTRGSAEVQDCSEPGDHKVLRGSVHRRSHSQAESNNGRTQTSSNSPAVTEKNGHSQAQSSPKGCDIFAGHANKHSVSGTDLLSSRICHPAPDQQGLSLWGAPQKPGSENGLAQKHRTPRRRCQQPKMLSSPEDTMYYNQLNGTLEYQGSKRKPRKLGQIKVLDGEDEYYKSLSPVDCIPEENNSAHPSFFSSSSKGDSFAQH
Method in brief: as §1

SMILES: C=CC(=O)Nc1cc(-c2cc(-c3cc4c([nH]3)CCNC4=O)ccn2)ccc1OC(F)(F)F [compound 11]
- inhibition at 0.01 µM ([1]; 10 nM): -7%
- inhibition at 0.1 µM ([1]; 100 nM): 4%
- inhibition at 1 µM ([1]; 1000 nM): 11%
- inhibition at 0.01 µM ([2]; 10 nM): 11%
- inhibition at 0.1 µM ([2]; 100 nM): 7%
- inhibition at 1 µM ([2]; 1000 nM): 2%
- inhibition at 0.01 µM ([3]; 10 nM): -23%
- inhibition at 0.1 µM ([3]; 100 nM): -10%
- inhibition at 1 µM ([3]; 1000 nM): 23%
- inhibition at 0.01 µM ([4]; 10 nM): 3%
- inhibition at 0.1 µM ([4]; 100 nM): 4%
- inhibition at 1 µM ([4]; 1000 nM): 16%
